Test results reported in US8921372B2, “Inhibitors of hepatitis C virus” (Theravance Biopharma R&D IP, LLC, priority 2010, dated 2014).

system: HCV genotype 1b replicon cell line (APC144; Huh7 cell background); experiment: HCV Genotype 1b Replicon Assay (Renilla luciferase readout); assay type: cell-based; conditions: Hepatitis C virus, Huh-7; read-out: Genotype 1b (pEC50 class, HCV genotype 1b replicon assay) (converted)
From the text: Assay 1: HCV Genotype 1b Replicon Assay
The HCV genotype 1b replicon cell line was obtained from Apath LLC (Brooklyn, N.Y.) (APC144; Huh7 cell background). This subgenomic replicon contains the N-terminus of the HCV core protein fused to the neomycin-resistance selectable marker. The EMCV IRES lies downstream and drives expression of humanized Renilla luciferase fused to the non-structural proteins NS3-NS5B. This cell line was used to determine compound potency using the luciferase activity readout as a measurement of compound inhibition of replicon levels.
(§1) Cells were grown at 37° C. in a 5% CO2 humidified incubator in DMEM (Invitrogen) with 10% FBS (HyClone), 1×NEAA (Invitrogen), 1× Pen-Strep (Invitrogen), and 500 μg/mL G418 (Invitrogen). On day 1 of the assay, cells were plated at 10,000 cells/well in white 96-well tissue culture plates (Costar) in 200 μL media lacking G418. Four hours later, once the cells have adhered, the media was removed and replaced with media (no G418) containing dose-responses of test compounds. Compounds were initially diluted in DMSO and then diluted another 200× in media to bring the final DMSO concentration down to 0.5%. The cells were incubated with test compounds for 48 hours. At the end of the incubation period, media and compound were removed from the plates and the luciferase activity was determined using Promega Renilla-Glo reagents.
To analyze the data, the luciferase activity was plotted vs. the compound concentration, and EC50 values were determined from a 4-parameter robust fit model with the GraphPad Prism software package (GraphPad Software, Inc., San Diego, Calif.). Results are expressed as the negative decadic logarithm of the EC50 value, pEC50.
Test compounds having a higher pEC50 value in this assay show greater inhibition of HCV genotype 1b replication.

`COC(=O)N[C@H](C(=O)N1CCC[C@H]1c1nc(-c2ccc(-c3ccc(NC(=O)c4ccc(N5CCN(C(=O)[C@H]6CC6(C)C)C[C@H]5C)nc4)cc3)cc2)c[nH]1)C(C)C` [Example 14, [(S)-1-((S)-2-{4-[4′-({6-[(R)-4-((S)-2,2-Dimethyl-cyclopropane-carbonyl)-2-methyl-piperazin-1-yl]-pyridine-3-carbonyl}-amino)-biphenyl-4-yl]-1H-imidazol-2-yl}-pyrrolidine-1-carbonyl)-2-methyl-propyl]-carbamic acid methyl ester] and `CNC(=O)N1CCN(c2ccc(C(=O)Nc3ccc(-c4ccc(-c5c[nH]c([C@@H]6CCCN6C(=O)[C@@H](NC(=O)OC)C(C)C)n5)cc4)c(F)c3)cn2)[C@H](C)C1` [Example 47] cannot be ordered by EC50: < 0.1 nM for the first, < 0.1 nM for the second.

With `COC(=O)N[C@H](C(=O)N1CCC[C@H]1c1nc(-c2ccc(-c3ccc(NC(=O)c4ccc(N5CCN(C(=O)C6CC6)C[C@H]5C)nc4)cc3C(F)(F)F)cc2)c[nH]1)C(C)C` [Example 35] the EC50 was < 0.1 nM.

system: HCV genotype 1a replicon cell line (APC89; Huh7.5 cell background); experiment: HCV Genotype 1a Replicon Assay (NS3-specific protease activity readout); assay type: cell-based; conditions: Hepatitis C virus, 72 hour incubation, read-out: Genotype 1a (pEC50 class, HCV genotype 1a replicon assay) (converted)
Description: Assay 2: HCV Genotype 1a Replicon Assay
The HCV genotype 1a replicon cell line was obtained from Apath LLC (APC89; Huh7.5 cell background). This subgenomic replicon contains the N-terminus of the HCV core protein fused to the neomycin-resistance selectable marker. The EMCV IRES lies downstream and drives expression of the non-structural proteins NS3-NS5B. Compound potencies were determined using the NS3-specific protease activity in lysates as a measurement of compound inhibition of replicon levels.
as §1, with “850” for “500”, “15,000” for “10,000”, “black” for “white”, “had” for “have”, “48 or 72” for “48”, “plates.” for “plates and the luciferase activity was determined using Promega Renilla-Glo reagents.”
To determine the NS3-specific protease activity in lysates, the cells were lysed at room temperature in 50 μL/well of 50 mM Hepes pH 7.5, 150 mM NaCl, 15% Glycerol, 0.15% Triton X-100, 10 mM DTT for 20 minutes with shaking. 50 μL of an NS3/4a protease-specific FRET substrate (Anaspec RET S1 Cat#22991) was then added to the wells at a final concentration of 15 μM. The plates were incubated at 37° C. for 20 minutes, which corresponds to a timepoint at which the protease activity is still in the linear phase. Protease activity was determined by measuring fluorescence (Excitation: 340 nm; Emission: 509 nm).
To analyze the data, the fluorescence was plotted vs. the compound concentration, and EC50 values were determined from a 4-parameter robust fit model using GraphPad Prism software.

First: COC(=O)N[C@H](C(=O)N1CCC[C@H]1c1nc(-c2ccc(-c3ccc(NC(=O)c4ccc(N5CCN(C(=O)[C@H]6CC6(C)C)C[C@H]5C)nc4)cc3)cc2)c[nH]1)C(C)C [Example 14, [(S)-1-((S)-2-{4-[4′-({6-[(R)-4-((S)-2,2-Dimethyl-cyclopropane-carbonyl)-2-methyl-piperazin-1-yl]-pyridine-3-carbonyl}-amino)-biphenyl-4-yl]-1H-imidazol-2-yl}-pyrrolidine-1-carbonyl)-2-methyl-propyl]-carbamic acid methyl ester]
Second: CNC(=O)N1CCN(c2ccc(C(=O)Nc3ccc(-c4ccc(-c5c[nH]c([C@@H]6CCCN6C(=O)[C@@H](NC(=O)OC)C(C)C)n5)cc4)c(F)c3)cn2)[C@H](C)C1 [Example 47]
The EC50 of the first is lower: < 0.1 nM for the first, 0.1 to 1 nM for the second.

`COC(=O)N[C@H](C(=O)N1CCC[C@H]1c1nc(-c2ccc(-c3ccc(C(=O)Nc4ccc(N5CCN(C(=O)[C@]6(C)CCCN6C(=O)[C@@H](NC(=O)OC)C(C)O)C[C@H]5C)nc4)cc3OC(F)(F)F)cc2)c[nH]1)C(C)C` (stereo partly drawn) [Example 67] and `COC(=O)N[C@H](C(=O)N1CCC[C@H]1c1nc(-c2ccc(-c3ccc(C(=O)Nc4ccc(N5CCN(C(=O)[C@]6(C)CCCN6C(=O)[C@@H](NC(=O)OC)C(C)(C)C)C[C@H]5C)nc4)cc3OC(F)(F)F)cc2)c[nH]1)C(C)C` [Example 70] fall in the same range of EC50: 0.1 to 1 nM for the first, 0.1 to 1 nM for the second.

`COC(=O)N[C@H](C(=O)N1CCC[C@H]1c1nc(-c2ccc(-c3ccc(NC(=O)c4ccc(N5CCN(C(=O)C6CC6)C[C@H]5C)nc4)cc3C(F)(F)F)cc2)c[nH]1)C(C)C` [Example 35] and `CCOc1cc(NC(=O)c2ccc(N3CCN(C(=O)NC)C[C@H]3C)nc2)ccc1-c1ccc(-c2c[nH]c([C@@H]3CCCN3C(=O)[C@@H](NC(=O)OC)C(C)C)n2)cc1` [Example 23] fall in the same range of EC50: 0.1 to 1 nM for the first, 0.1 to 1 nM for the second.

`COC(=O)N[C@H](C(=O)N1CCC[C@H]1c1nc(-c2ccc(-c3cc(F)c(NC(=O)c4ccc(N5CCN(C(=O)c6ncccn6)C[C@H]5C)nc4)cc3OC(F)(F)F)cc2)c[nH]1)C(C)C` [Example 27-35] and `COC(=O)N[C@H](C(=O)N1CCC[C@H]1c1nc(-c2ccc(-c3cc(F)c(NC(=O)c4ccc(N5CCN(C(=O)NC(C)C)C[C@H]5C)nc4)cc3OC(F)(F)F)cc2)c[nH]1)C(C)C` [Example 27-39] fall in the same range of EC50: 0.1 to 1 nM for the first, 0.1 to 1 nM for the second.

Compared with `COC(=O)N[C@H](C(=O)N1CCC[C@H]1c1nc(-c2ccc(-c3cc(OC)c(NC(=O)c4ccc(N5CCN(C(=O)c6c[nH]cn6)C[C@H]5C)nc4)cc3OC(F)(F)F)cc2)c[nH]1)C(C)C` [Example 27-29], `COC(=O)N[C@H](C(=O)N1CCC[C@H]1c1nc(-c2ccc(-c3cc(Cl)c(NC(=O)c4ccc(N5CCN(C(=O)c6c[nH]cn6)C[C@H]5C)nc4)cc3OC(F)(F)F)cc2)c[nH]1)C(C)C` [Example 27-66] is lower in EC50: 0.1 to 1 nM for the first, < 0.1 nM for the second.

`COC(=O)N[C@H](C(=O)N1CCC[C@H]1c1nc(-c2ccc(-c3cc(Cl)c(NC(=O)c4ccc(N5CCN(C(=O)[C@]6(C)CCCN6C(=O)c6c[nH]cn6)C[C@H]5C)nc4)cc3OC(F)(F)F)cc2)c[nH]1)C(C)C` [Example 27-71] and `COC(=O)N[C@H](C(=O)N1CCC[C@H]1c1nc(-c2ccc(-c3cc(Cl)c(NC(=O)c4ccc(N5CCN(C(=O)[C@]6(C)CCCN6C(=O)CO)C[C@H]5C)nc4)cc3OC(F)(F)F)cc2)c[nH]1)C(C)C` [Example 27-76] cannot be ordered by EC50: < 0.1 nM for the first, < 0.1 nM for the second.

`COC(=O)N[C@H](C(=O)N1CCC[C@H]1c1nc(-c2ccc(-c3cc(Cl)c(NC(=O)c4ccc(N5C[C@H](C)N(C(=O)[C@]6(C)CCCN6C(=O)CN(C)C)C[C@H]5C)nc4)cc3OC(F)(F)F)cc2)c[nH]1)C(C)C` [Example 28-41] and `COCCNC(=O)N1CCC[C@@]1(C)C(=O)N1C[C@@H](C)N(c2ccc(C(=O)Nc3cc(OC(F)(F)F)c(-c4ccc(-c5c[nH]c([C@@H]6CCCN6C(=O)[C@@H](NC(=O)OC)C(C)C)n5)cc4)cc3Cl)cn2)C[C@@H]1C` [Example 28-43] cannot be ordered by EC50: < 0.1 nM for the first, < 0.1 nM for the second.

`COC(=O)N[C@H](C(=O)N1CCC[C@H]1c1nc(-c2ccc(-c3cc(F)c(NC(=O)c4ccc(N5CCN(C(=O)NC6CC6)C[C@H]5C)nc4)cc3OC(F)(F)F)cc2)c[nH]1)C(C)C` [Example 27-40] and `CNC(=O)N1CCN(c2ccc(C(=O)Nc3cc(OC(F)(F)F)c(-c4ccc(-c5c[nH]c([C@@H]6CCCN6C(=O)[C@@H](NC(=O)OC)C(C)C)n5)cc4)cc3OC)cn2)[C@H](C)C1` [Example 27-32] fall in the same range of EC50: 0.1 to 1 nM for the first, 0.1 to 1 nM for the second.

`COC(=O)N[C@H](C(=O)N1CCC[C@H]1c1nc(-c2ccc(-c3ccc(NC(=O)c4ccc(N5C[C@H](C)N(C(=O)C6CC6)C[C@H]5C)nc4)c(C)n3)cc2)c[nH]1)C(C)C` [Example 73] and `CNC(=O)N1C[C@@H](C)N(c2ccc(C(=O)Nc3ccc(-c4ccc(-c5c[nH]c([C@@H]6CCCN6C(=O)[C@@H](NC(=O)OC)C(C)C)n5)cc4)nc3C)cn2)C[C@@H]1C` [Example 74] fall in the same range of EC50: 1 to 10 nM for the first, 1 to 10 nM for the second.

`COC(=O)N[C@H](C(=O)N1CCC[C@H]1c1nc(-c2ccc(-c3cc(Cl)c(NC(=O)c4ccc(N5CCN(C(=O)[C@]6(C)CCCN6C(=O)[C@@H](N)C(C)C)C[C@H]5C)nc4)cc3OC(F)(F)F)cc2)c[nH]1)C(C)C` [Example 27-75] and `COC(=O)N[C@H](C(=O)N1CCC[C@H]1c1nc(-c2ccc(-c3cc(F)c(NC(=O)c4ccc(N5CCN(C(=O)[C@]6(C)CCCN6C(=O)[C@H](C)O)C[C@H]5C)nc4)cc3OC(F)(F)F)cc2)c[nH]1)C(C)C` [Example 27-49] cannot be ordered by EC50: < 0.1 nM for the first, < 0.1 nM for the second.

First: COC(=O)N[C@H](C(=O)N1CCC[C@H]1c1nc(-c2ccc(-c3ccc(NC(=O)c4ccc(N5CCN(C(=O)[C@H]6CC6(C)C)C[C@H]5C)nc4)cc3OC(F)(F)F)nc2)c[nH]1)C(C)C [Example 76, {(S)-1-[(S)-2-(4-{6-[4-({6-[(R)-4-((S)-2,2-Dimethyl-cyclopropanecarbonyl)-2-methyl-piperazin-1-yl]-pyridine-3-carbonyl}-amino)-trifluoromethoxyphenyl]-pyridin-3-yl}-1H-imidazol-2-yl)-pyrrolidine-1-carbonyl]-2-methyl-propyl}-carbamic acid methyl ester]
Second: COC(=O)N[C@H](C(=O)N1CCC[C@H]1c1nc(-c2ccc(-c3cc(F)c(NC(=O)c4ccc(N5CCN(C(=O)[C@]6(C)CCCN6)C[C@H]5C)nc4)cc3OC(F)(F)F)cc2)c[nH]1)C(C)C [Example 27-9]
The EC50 of the first is lower: 0.1 to 1 nM for the first, 1 to 10 nM for the second.

`COC(=O)N[C@H](C(=O)N1CCC[C@H]1c1nc(-c2ccc(-c3cc(F)c(NC(=O)c4ccc(N5CCN(C(=O)[C@]6(C)CCCN6C(=O)OC(C)(C)C)C[C@H]5C)nc4)cc3OC(F)(F)F)cc2)c[nH]1)C(C)C` [Example 27-8] and `COCCNC(=O)N1CCC[C@@]1(C)C(=O)N1CCN(c2ccc(C(=O)Nc3cc(OC(F)(F)F)c(-c4ccc(-c5c[nH]c([C@@H]6CCCN6C(=O)[C@@H](NC(=O)OC)C(C)C)n5)cc4)cc3Cl)cn2)[C@H](C)C1` [Example 27-74] cannot be ordered by EC50: < 0.1 nM for the first, < 0.1 nM for the second.

Compared with `CNC(=O)C1CCC[C@@]1(C)C(=O)N1C[C@@H](C)N(c2ccc(C(=O)Nc3cc(OC(F)(F)F)c(-c4ccc(-c5c[nH]c([C@@H]6CCCN6C(=O)[C@@H](NC(=O)OC)C(C)C)n5)cc4)cc3Cl)cn2)C[C@@H]1C` (stereo partly drawn) [Example 28-42], `COC(=O)N[C@H](C(=O)N1CCC[C@H]1c1nc(-c2ccc(-c3ccc(NC(=O)c4ccc(N5C[C@H](C)N(C(=O)c6c[nH]cn6)C[C@H]5C)nc4)c(C)n3)cc2)c[nH]1)C(C)C` [Example 75] is higher in EC50: < 0.1 nM for the first, 1 to 10 nM for the second.

Work on `CCOc1cc(NC(=O)c2ccc(N3CCN(C(=O)c4c[nH]cn4)C[C@H]3C)nc2)ccc1-c1ccc(-c2c[nH]c([C@@H]3CCCN3C(=O)[C@@H](NC(=O)OC)C(C)C)n2)cc1` [Example 24] yielded an EC50 of 0.1 to 1 nM.
